Source: US20250269044A1, “PSMA-TARGETED DENDRIMER NANOPLATFORM FOR CANCER DETECTION AND THERAPY” (Washington State University, priority 2024, published 2025)
Converted amounts (≈) assume the structure as drawn. “Also recorded” adds a separate entry of the source.

What was measured:
PC3-PIP PSMA (+) cells = assay: CellTiter-Glo Luminescent Cell Viability assay; type: cell-based; conditions: Homo sapiens; for viability at 1 µg/mL: 1 μg/ml; for viability at 1 µg/mL / viability at 10 µg/mL / viability at 1000 µg/mL / EC50: 72 h; for viability at 1 µg/mL / viability at 10 µg/mL / viability at 1000 µg/mL: read-out: viable cells; for viability at 10 µg/mL: 10 μg/ml; for viability at 1000 µg/mL: 1000 μg/ml; for IC50: 72 H, equivalent drug bases, read-out: IC50 anti-proliferative activity; for EC50: nonlinear regression with variable slope
Experimental: Cell viability: 2.5×10^4 PC3-PIP PSMA (+) cells were allowed to adhere to a 96 well plate overnight. The following day, cell media was changed and the PD-CTT1298-Cabo conjugate, at the concentrations tested, was added along with cabozantinib (Cabo) and hydoxy-cabozantinib (Cabo-OH). The cells were allowed to incubate at 37°° C. for 72H. Following incubation, the luminescence of the viable cells was measured using the CellTiter-Glo® Luminescent Cell Viability assay according to manufacturer's instructions. Cell viability (%) was calculated using the luminescence values obtained from the controls used in the experiment. The experiment was performed in triplicate.
Cell viability. 2.5×10^4 PC3-PIP PSMA (+) cells were allowed to adhere to a 96 well plate overnight. The following day, cell media was changed and the PSMA-2DG-D-Cabo dendrimer, at the concentrations tested, were added along with Cabozantinib (Cabo) and Cabozantinib-7-hydoxy derivative (Cabo-OH). The cells were allowed to incubate at 37° C. for 72 h. Following incubation, the luminescence of the viable cells was measured using the CellTiter-Glo® Luminescent Cell Viability assay (Promega, G7570) according to manufacturer's instructions. The luminescence data was collected using a plate reader. Cell viability (%) was calculated using the luminescence values obtained from the controls used in the experiment. The blank cells served as a positive (+) control while sterile 10% DMSO (Fisher Scientific, BP231) served as the negative (−) control. The experiment was performed in triplicate. A similar experiment was carried out with 2DG-D dendrimer at different concentrations (0.1, 1, 10, 100 and 1000 μg/ml) following the same protocol. The experiments were performed in triplicate, with proper controls. Statistical analyses were performed using a TWO-WAY ANOVA T-Test with unequal variances.

Aqueous solubility = type: physicochemical
c-Met = c-Met (Homo sapiens, UniProt P08581); assay: c-Met inhibition activities (IC50); type: biochemical; conditions: read-out: c-Met inhibitory activity IC50
Sequence of c-Met (P08581 25-1390): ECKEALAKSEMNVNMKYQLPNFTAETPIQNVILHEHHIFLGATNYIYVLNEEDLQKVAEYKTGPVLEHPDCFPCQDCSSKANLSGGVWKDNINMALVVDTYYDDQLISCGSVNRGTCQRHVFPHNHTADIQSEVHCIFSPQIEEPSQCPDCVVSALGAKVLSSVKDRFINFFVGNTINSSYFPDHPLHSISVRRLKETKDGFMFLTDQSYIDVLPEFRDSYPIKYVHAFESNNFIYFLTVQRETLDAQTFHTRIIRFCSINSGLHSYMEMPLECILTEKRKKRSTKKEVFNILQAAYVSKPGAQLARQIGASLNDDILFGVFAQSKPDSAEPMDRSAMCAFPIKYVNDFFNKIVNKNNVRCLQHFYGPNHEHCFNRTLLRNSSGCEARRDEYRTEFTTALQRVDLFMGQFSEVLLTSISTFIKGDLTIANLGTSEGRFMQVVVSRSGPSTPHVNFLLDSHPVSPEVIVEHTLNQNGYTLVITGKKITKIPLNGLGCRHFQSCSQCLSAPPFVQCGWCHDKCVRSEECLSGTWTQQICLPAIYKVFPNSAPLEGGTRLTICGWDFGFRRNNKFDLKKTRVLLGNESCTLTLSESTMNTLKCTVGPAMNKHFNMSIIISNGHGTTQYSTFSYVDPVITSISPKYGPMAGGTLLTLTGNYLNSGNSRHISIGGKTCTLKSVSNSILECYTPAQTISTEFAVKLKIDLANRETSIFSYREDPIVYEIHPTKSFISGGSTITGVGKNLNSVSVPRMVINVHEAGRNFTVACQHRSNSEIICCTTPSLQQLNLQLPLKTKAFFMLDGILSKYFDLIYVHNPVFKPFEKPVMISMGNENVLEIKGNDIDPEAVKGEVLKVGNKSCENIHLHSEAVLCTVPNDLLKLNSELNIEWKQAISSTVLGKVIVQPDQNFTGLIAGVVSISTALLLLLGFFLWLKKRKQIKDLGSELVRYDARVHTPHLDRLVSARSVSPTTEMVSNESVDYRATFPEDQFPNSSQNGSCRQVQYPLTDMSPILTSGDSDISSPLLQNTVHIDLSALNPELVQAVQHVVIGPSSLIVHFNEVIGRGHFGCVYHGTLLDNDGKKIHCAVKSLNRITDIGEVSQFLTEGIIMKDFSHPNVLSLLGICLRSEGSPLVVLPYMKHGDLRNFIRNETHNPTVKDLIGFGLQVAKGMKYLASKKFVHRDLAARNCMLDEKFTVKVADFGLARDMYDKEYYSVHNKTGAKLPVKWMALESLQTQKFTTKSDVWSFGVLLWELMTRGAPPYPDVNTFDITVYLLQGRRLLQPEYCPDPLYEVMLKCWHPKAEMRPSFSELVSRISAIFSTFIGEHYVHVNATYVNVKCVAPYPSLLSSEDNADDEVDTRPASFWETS

Row | IC50 (PC3-PIP PSMA (+) cells) [µg/mL] | EC50 (PC3-PIP PSMA (+) cells) [µg/mL] | IC50 (c-Met) [nM] | Compound | viability at 1 µg/mL (PC3-PIP PSMA (+) cells) [%] | viability at 10 µg/mL (PC3-PIP PSMA (+) cells) [%] | viability at 1000 µg/mL (PC3-PIP PSMA (+) cells) [%] | water solubility (in words) (Aqueous solubility)
1 | 24.8 ± 2.27 | 68 (≈ 136 µM) |  | COc1cc2nccc(Oc3ccc(NC(=O)C4(C(=O)Nc5ccc(F)cc5)CC4)cc3)c2cc1OC [Cabo, cabozantinib] | 96.3 ± 4.58 | 69.2 ± 0.94 | 4.17 ± 0.53 | poor aqueous solubility; also recorded: negligible solubility in water
2 | 77.3 ± 4.35 | 69.4 (≈ 142 µM) | 26.3 | COc1cc2c(Oc3ccc(NC(=O)C4(C(=O)Nc5ccc(F)cc5)CC4)cc3)ccnc2cc1O [Cabo-OH, hydoxy-cabozantinib] | 105 ± 6.38 | 106 ± 3.09 | 7.81 ± 0.24 | poor aqueous solubility; also recorded: negligible solubility in water
